For assay [1], the target named is K. pneumoniae (KpFtsZ) (Klebsiella pneumoniae, UniProt A0A0H3GRR0). In words: Fluorescence anisotropy binding of BOFP to KpFtsZ. As to conditions: for Kd: 50 mM Tris-HCl (pH 7.6), 50 mM KCl, 0.1 µM BOFP. As for the experimental part:
(§1) Fluorescence anisotropy experiments were performed using an AVIV model ATF105 spectrofluorometer at 15, 25, or 37 °C. In these experiments, bandwidths were set to 4 nm in both the excitation and emission directions, with the excitation and emission wavelengths being set at 488 nm and 510 nm, respectively. BOFP (0.1 µM) was titrated with increasing concentrations (ranging from 0 to 12 µM) of FtsZ in 120 µL of buffer containing 50 mM Tris-HCl (pH 7.6) and 50 mM KCl. After each protein addition, the samples were equilibrated for 3 minutes, whereupon the fluorescence anisotropy was measured.
(§2) In this equation, r0 is the anisotropy of the protein-free compound, r∞ is the anisotropy of the compound in the presence of an infinite concentration of FtsZ, [C]tot is the total concentration of the compound, and [P]tot is the total concentration of protein with each addition. These analyses yielded the equilibrium dissociation constant (Kd) for each binding reaction.
(§3) The binding free energy (ΔG) at temperature T was derived from the corresponding Kd value determined at T using the following relationship:2 ΔG=−RTln(1/Kd)
(§4) The binding enthalpy (ΔH) and entropy (ΔS) were derived from linear fits of the ln(1/Kd) vs. 1/T plots shown in Figs. 3f and 5e using the following relationship:3 ln(1/Kd)=−ΔH/R(1/T)+ΔS/R
(§5) In comparative control experiments, the anisotropy of 0.1 µM BODIPY FL-COOH or BOFP alone or in the presence of SaFtsZ (10 µM), SpyFtsZ (10 µM), KpFtsZ (2 µM), or PaFtsZ (2 µM) was measured at 37 °C in the same buffer described above.
(In general: Fluorescence polarisation rises when a labelled molecule tumbles more slowly, as on binding a larger partner.)

Assay [2] addresses T1, P. aeruginosa (PaFtsZ) (Pseudomonas aeruginosa, UniProt P47204).
T1 construct: 6xHis (C); made in house; host or cells: E. coli BLR (DE3), pET-22b(+)
T1 sequence (P47204 1-394): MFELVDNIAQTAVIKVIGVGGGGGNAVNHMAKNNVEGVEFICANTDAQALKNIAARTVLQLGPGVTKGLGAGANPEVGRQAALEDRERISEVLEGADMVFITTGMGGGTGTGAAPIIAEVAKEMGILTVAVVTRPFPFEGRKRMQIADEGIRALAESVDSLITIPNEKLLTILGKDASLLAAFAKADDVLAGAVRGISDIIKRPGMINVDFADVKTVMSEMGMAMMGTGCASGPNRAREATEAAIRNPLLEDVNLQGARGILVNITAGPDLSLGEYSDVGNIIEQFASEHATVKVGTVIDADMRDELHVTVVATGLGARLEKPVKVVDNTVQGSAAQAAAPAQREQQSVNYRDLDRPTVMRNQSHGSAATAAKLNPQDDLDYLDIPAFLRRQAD
In words: Fluorescence anisotropy binding of BOFP to PaFtsZ. To be noted: for Kd: 50 mM Tris-HCl (pH 7.6), 50 mM KCl, 0.1 µM BOFP. As for the experimental part: as §1, §2, §3, §4, §5

The test system of assay [3] is FtsZ in S. pneumoniae ATCC 49619 cells. In words: FtsZ visualization by fluorescence microscopy in live cells. In kind it is cell-based, Streptococcus pneumoniae. To be noted: 1 µg/mL for 5 minutes. The protocol: (§6) All differential interference contrast (DIC) and fluorescence microscopy experiments were conducted using an Olympus BX50 microscope equipped with an X-cite Exacte 200 W mercury lamp, a 100× Olympus UPLSAPO oil immersion objective (1.40 aperture), as well as both Chroma ET-EGFP (FITC/Cy2) and ET mCherry, Texas Red filters. Images were captured using a QImaging Retiga R3 charge-coupled device (CCD) camera and the Ocular-Version 2.0 software package (QImaging).
(§7) For visualizing FtsZ in Gram-positive bacteria using BOFP, the bacterial cells were grown to log-phase in media suitable for each individual pathogen. Specifically, S. aureus NRS705 (MRSA) was grown in tryptic soy broth (TSB), E. faecalis ATCC 29212 and E. faecium ATCC 19434 were grown in lactobacilli MRS broth, S. agalactiae ATCC 12386 and S. pneumoniae ATCC 49619 were grown in TH broth, and S. pyogenes ATCC 19615 was grown in CAMH broth supplemented with 3% (v/v) LHB. For each Gram-positive bacterial strain, a total of 1 mL of cell culture was centrifuged at 15,000 × g for 1 minute and washed 2–3 times with 1 mL of PBS. After the final wash, the pelleted cells were resuspended in 500 µL of PBS containing 1 µg/mL of BOFP and incubated in the dark for 5 minutes at room temperature. The cells were then centrifuged at 15,000 × g for 1 minute, washed twice with 1 mL of PBS, and subsequently resuspended in 200 µL of PBS. […]

The target in assay [4] is T2, FtsZ in E. faecalis ATCC 29212 cells (Enterococcus faecalis, UniProt O08439).
T2 construct: host or cells: E. faecalis ATCC 29212
T2 sequence (O08439 whole entry): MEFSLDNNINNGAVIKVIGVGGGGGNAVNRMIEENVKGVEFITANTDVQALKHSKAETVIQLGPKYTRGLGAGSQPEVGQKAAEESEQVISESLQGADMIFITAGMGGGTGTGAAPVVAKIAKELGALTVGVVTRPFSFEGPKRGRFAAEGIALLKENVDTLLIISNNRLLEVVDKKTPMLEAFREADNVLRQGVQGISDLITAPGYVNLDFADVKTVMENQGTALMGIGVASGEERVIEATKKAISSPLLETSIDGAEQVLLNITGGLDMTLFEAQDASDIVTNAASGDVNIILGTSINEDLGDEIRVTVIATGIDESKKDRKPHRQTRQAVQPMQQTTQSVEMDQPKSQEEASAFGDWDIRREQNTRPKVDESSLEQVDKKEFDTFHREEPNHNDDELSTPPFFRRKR
The description is as above. It is filed as cell-based. As to conditions: 1 µg/mL for 5 minutes. As for the experimental part:
as §6, §7

Assay [5] has as its system FtsZ in K. pneumoniae ATCC 13883 cells. The description is as above. As to conditions: 1 µg/mL for 5 minutes. In kind it is cell-based, Klebsiella pneumoniae. The protocol: as §6
For visualizing FtsZ in Gram-negative bacteria using BOFP, E. coli ATCC 25922, K. pneumoniae ATCC 13883, P. aeruginosa ATCC 27853, and A. baumannii ATCC 19606 were grown to log-phase in CAMH broth. For each Gram-negative bacterial strain, a total of 1 mL of cell culture was centrifuged at 15,000 × g for 1 minute and washed twice with 1 mL of Tris-buffered saline (TBS) composed of 50 mM Tris-HCl (pH 7.6) and 150 mM NaCl. After the final wash, the pelleted cells were resuspended in 500 µL of TBS containing 1 µg/mL of BOFP and pentamidine isethionate (at 0.875 mg/mL for E. coli and 3.5 mg/mL for the other three strains). The resuspended cells were then incubated in the dark for 5 minutes at room temperature, centrifuged at 15,000 × g for 1 minute, washed twice with 1 mL of TBS, and subsequently resuspended in 200 µL of TBS. This final cell suspension was then prepared for microscopy as described for the Gram-positive bacterial strains. Comparative control experiments with 1 µg/mL BODIPY FL-COOH were conducted in K. pneumoniae ATCC 13883 cells as described above for BOFP.

The mark [6] stands for this setting: calculated at T = 310 K (37 °C) from Kd.
The mark [7] stands for this setting: from linear fit of ln(1/Kd) vs. 1/T.

Molecules are shown by their SMILES. Read-outs that look alike come from different tables or passages of the source.

Chain of K. pneumoniae (KpFtsZ) (A0A0H3GRR0 entry or part of it): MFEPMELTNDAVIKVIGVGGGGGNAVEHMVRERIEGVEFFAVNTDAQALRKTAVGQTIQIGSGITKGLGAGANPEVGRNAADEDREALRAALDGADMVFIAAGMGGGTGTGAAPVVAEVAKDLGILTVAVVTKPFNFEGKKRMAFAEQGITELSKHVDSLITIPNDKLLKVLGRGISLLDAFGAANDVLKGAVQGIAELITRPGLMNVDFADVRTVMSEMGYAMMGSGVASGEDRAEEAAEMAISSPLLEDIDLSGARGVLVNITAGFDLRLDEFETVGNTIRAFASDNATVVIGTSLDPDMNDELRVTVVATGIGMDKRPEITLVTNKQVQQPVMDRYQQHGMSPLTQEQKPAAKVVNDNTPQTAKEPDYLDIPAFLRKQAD

What is called Kd is the constant that tells how readily two partners part at equilibrium. In the case of `CC1=CC(C)=[N+]2C1=Cc1ccc(CCC(=O)OCC(Oc3ccc(F)c(C(N)=O)c3F)c3nc(-c4ccc(C(F)(F)F)cc4)c(Br)o3)n1[B-]2(F)F` (centres unmarked) [BOFP], the dissociation constant (Kd) was found to be 0.42 ± 0.05 µM in assay [1] (15 °C, read-out: Kd - 15 °C); 0.58 ± 0.04 µM in assay [1] (25 °C, read-out: Kd - 25 °C); 0.82 ± 0.04 µM in assay [1] (37 °C, read-out: Kd - 37 °C); 0.23 ± 0.02 µM in assay [2] (15 °C, read-out: Kd - 15 °C); 0.36 ± 0.06 µM in assay [2] (25 °C, read-out: Kd - 25 °C); 0.58 ± 0.06 µM in assay [2] (37 °C, read-out: Kd - 37 °C). Also, the ΔG was -8.6 ± 0.1 kcal/mol in assay [1] (setting [6]) and -8.8 ± 0.1 kcal/mol in assay [2] (setting [6]). In addition, the ΔH in assay [1] (setting [7]) is -5.4 ± 0.1 kcal/mol; in assay [2] (setting [7]) it was -7.7 ± 0.2 kcal/mol. Besides, the “Fluorescence staining / FtsZ labeling in live cells” value in assay [3] was “bright bands of fluorescence staining are clearly visible at midcell”; in assay [4], “bright bands of fluorescence staining are clearly visible at midcell”; in assay [5] (co-treated with 3.5 mg/mL pentamidine isethionate) it was “bright fluorescence staining becomes visible both at midcell and along the cell periphery”; in assay [5] (without pentamidine isethionate), “little or no FtsZ labeling”.

Source of the values: PMC6934700, “Structure-Guided Design of a Fluorescent Probe for the Visualization of FtsZ in Clinically Important Gram-Positive and Gram-Negative Bacterial Pathogens” (Scientific Reports, 2019).
